#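 Test compounds were applied to cells in 96-well plates for 48 hours at 5 doses. GI50: concentration for 50% inhibition of growth.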 Activity calls are given as the source filed them. No stated cut-off is given here; in the data, active = GI50 up to about 1.1 µM and inactive = higher.
# Columns and labels:
# Test in all cases: DTP human tumour cell line panel, 48 h
# 786-0 = tested on: 786-0
# A498 = tested on: A498
# A549 = tested on: A549
# ACHN = tested on: ACHN
# CAKI-1 = tested on: CAKI-1
# CCRF-CEM = tested on: CCRF-CEM
# COLO 205 = tested on: COLO 205
# DLD-1 = tested on: DLD-1
# DMS-114 = tested on: DMS-114
# DMS-273 = tested on: DMS-273
# EKVX = tested on: EKVX
# HCC 2998 = tested on: HCC 2998
# HCT-116 = tested on: HCT-116
# HCT-15 = tested on: HCT-15
# HL-60 = tested on: HL-60
# HOP-62 = tested on: HOP-62
# HOP-92 = tested on: HOP-92
# HT-29 = tested on: HT-29
# IGROV-1 = tested on: IGROV-1
# K562 = tested on: K562
# KM-20L2 = tested on: KM-20L2
# KM12 = tested on: KM12
# LOX IMVI = tested on: LOX IMVI
# LXFL 529 = tested on: LXFL 529
# M14 = tested on: M14
# M19-MEL = tested on: M19-MEL
# MOLT-4 = tested on: MOLT-4
# Malme-3M = tested on: Malme-3M
# NCI-H226 = tested on: NCI-H226
# NCI-H23 = tested on: NCI-H23
# NCI-H460 = tested on: NCI-H460
# NCI-H522 = tested on: NCI-H522
# OVCAR-3 = tested on: OVCAR-3
# OVCAR-4 = tested on: OVCAR-4
# OVCAR-5 = tested on: OVCAR-5
# OVCAR-8 = tested on: OVCAR-8
# RPMI-8226 = tested on: RPMI-8226
# RXF 393 = tested on: RXF 393
# RXF 631 = tested on: RXF 631
# SF-268 = tested on: SF-268
# SF-295 = tested on: SF-295
# SF-539 = tested on: SF-539
# SK-MEL-28 = tested on: SK-MEL-28
# SK-MEL-2 = tested on: SK-MEL-2
# SK-MEL-5 = tested on: SK-MEL-5
# SK-OV-3 = tested on: SK-OV-3
# SN12C = tested on: SN12C
# SNB-19 = tested on: SNB-19
# SNB-75 = tested on: SNB-75
# SNB-78 = tested on: SNB-78
# SR = tested on: SR
# SW-620 = tested on: SW-620
# TK-10 = tested on: TK-10
# U-251 = tested on: U-251
# UACC-257 = tested on: UACC-257
# UACC-62 = tested on: UACC-62
# UO-31 = tested on: UO-31
# XF498 = tested on: XF498
smiles,measurement,setting,value
CN(C)c1cccc(-c2cc(O)c3cc4c(cc3n2)OCO4)c1,GI50,786-0,262 nM (active)
same,GI50,A498,137 nM (active)
same,GI50,A549,343 nM (active)
same,GI50,ACHN,378 nM (active)
same,GI50,CAKI-1,> 100000 nM (inactive)
same,GI50,CCRF-CEM,204 nM (active)
same,GI50,COLO 205,200 nM (active)
same,GI50,DLD-1,206 nM (active)
same,GI50,DMS-114,236 nM (active)
same,GI50,DMS-273,203 nM (active)
same,GI50,EKVX,25600 nM (inactive)
same,GI50,HCC 2998,193 nM (active)
same,GI50,HCT-116,138 nM (active)
same,GI50,HCT-15,285 nM
same,GI50,HL-60,112 nM (active)
same,GI50,HOP-62,274 nM (active)
same,GI50,HOP-92,2150 nM (inactive)
same,GI50,HT-29,202 nM (active)
same,GI50,IGROV-1,625 nM (active)
same,GI50,K562,146 nM (active)
same,GI50,KM-20L2,216 nM (active)
same,GI50,KM12,45.6 nM (active)
same,GI50,LOX IMVI,192 nM (active)
same,GI50,LXFL 529,130 nM (active)
same,GI50,M14,139 nM (active)
same,GI50,M19-MEL,401 nM (active)
same,GI50,MOLT-4,300 nM (active)
same,GI50,Malme-3M,131 nM (active)
same,GI50,NCI-H226,315 nM (active)
same,GI50,NCI-H23,326 nM (active)
same,GI50,NCI-H460,278 nM (active)
same,GI50,NCI-H522,50.5 nM (active)
same,GI50,OVCAR-3,80.7 nM (active)
same,GI50,OVCAR-4,705 nM (active)
same,GI50,OVCAR-5,274 nM (active)
same,GI50,OVCAR-8,363 nM (active)
same,GI50,RPMI-8226,473 nM (active)
same,GI50,RXF 393,241 nM (active)
same,GI50,RXF 631,815 nM (active)
same,GI50,SF-268,327 nM (active)
same,GI50,SF-295,136 nM (active)
same,GI50,SF-539,171 nM (active)
same,GI50,SK-MEL-28,55.3 nM (active)
same,GI50,SK-MEL-2,221 nM (active)
same,GI50,SK-MEL-5,77.6 nM (active)
same,GI50,SK-OV-3,123 nM (active)
same,GI50,SN12C,632 nM (active)
same,GI50,SNB-19,365 nM (active)
same,GI50,SNB-75,54 nM (active)
same,GI50,SNB-78,62800 nM (inactive)
same,GI50,SR,708 nM (active)
same,GI50,SW-620,124 nM (active)
same,GI50,TK-10,1830 nM (inactive)
same,GI50,U-251,247 nM (active)
same,GI50,UACC-257,916 nM (active)
same,GI50,UACC-62,136 nM (active)
same,GI50,UO-31,667 nM (active)
same,GI50,XF498,144 nM (active)

# Reference: ChEMBL document CHEMBL1201862, “PubChem BioAssay data set” (2004)
